The EC50 is the concentration that produces a half-maximal response.

Three compounds from paper PMC11648822, “Lactam Truncation Yields a Dihydroquinazolinone Scaffold with Potent Antimalarial Activity that Targets PfATP4” (Chemmedchem, 2024) can be followed below.

Data set [1] relates to P. falciparum (Pf) 3D7 parasites. The data set can be described thus: P. falciparum LDH viability assay. Format: cell-based. The conditions noted are these: Plasmodium falciparum, 3D7, 72 h, LDH activity at 72 h; mean and SD of 3 independent experiments. From the text: This assay is a platform assay conducted at the Walter and Eliza Hall Institute and uses a protocol previously decsribed.[30, 31]

Another data set is described as follows: Rat hepatocyte stability. Format: in vitro ADME. To be noted: rat hepatocytes; read-out: Rat Hep CLint. The source says:
Human liver microsome stability, rat hepatocyte stability, aqueous solubility and eLogD are platform assays conducted by TCG Lifesciences and undertaken using previously described protocols.[10]

Data set [2] deals with P. falciparum Dd2 parental strain. The data set can be described thus: PfATP4 drug resistant parasite viability assay (LDH), Dd2 parental. Format: cell-based. The conditions noted are these: Plasmodium falciparum, DD2, 72 h, read-out: Dd2^parental EC50 (SD). As to the method:
These assays were performed according to a previously described protocol.[16] Briefly, P. falciparum Dd2 strains treated with compound were incubated for 72 h at 37 °C. After incubating for 72 h, plates were frozen at −80 °C and then thawed at room temperature for at least 2 h. LDH activity, a surrogate for parasite growth was measured by the addition of the Malstst reagent mix, followed by incubation for 30 min and absorbance read using a ClarioStar Microplate reader at 650 nm. Values were normalized to DMSO control as a percentage and EC50 and dose response curves generated using GraphPad Prism.

Data set [3] has as its system P. knowlesi YH1 parasites. The data set can be described thus: P. knowlesi viability assay (SYBR green). The class given is cell-based. The conditions noted are these: Plasmodium knowlesi, 48 h, read-out: P. knowlesi EC50 (SD) YH1. The protocol:
These assays were performed as previously described.[16] […] Parasites were synchronised with 5 % (w/v) sorbitol (Sigma‐Aldrich) treatments for ring stages. […] Parasites were grown in 1 % haematocrit, at 1 % and 2 % parasitaemia for P. falciparum and P. knowlesi respectively. […] Parasitaemia was measured using a SYBR DNA staining assay on a fluorometer.[33] After the incubation period, supernatants were removed and well contents were resuspended in PBS.

The next data set concerns P. falciparum 7G8. The data set can be described thus: Multidrug-resistant parasite viability assay (SYBR green), 7G8. Format: cell-based. To be noted: Plasmodium falciparum, 7G8, 72 h, read-out: multidrug resistant P. falciparum strains EC50 (SD) 7G8. The protocol:
(§1) These assays were performed as previously described.[16] P. falciparum 3D7 parasites and resistant lines Dd2, W2mef, 7G8, and artemisinin‐resistant Cambodian isolate (Cam3.I (2539T)), and P. knowlesi YH1, were cultured in human O^+ erythrocytes (RBCs) (Australian Red Cross Blood Service), in RPMI‐HEPES culture medium (pH 7.4, 50 μg/mL hypoxanthine, 25 mM NaHCO3, 20 μg/mL gentamicin, 0.5 % Albumax II (GibcoBRL)) (Thermo Fisher Scientific) and maintained in an atmosphere of 1 % O2, 4 % CO2 and 95 % N2. Parasites were synchronised with 5 % (w/v) sorbitol (Sigma‐Aldrich) treatments for ring stages. Growth assays for measuring drug inhibition of in‐cycle, ring to schizont stage parasites have been described previously. Parasites were grown in 1 % haematocrit, at 1 % and 2 % parasitaemia for P. falciparum and P. knowlesi respectively. […] Parasitaemia was measured using a SYBR DNA staining assay on a fluorometer.[33] After the incubation period, supernatants were removed and well contents were resuspended in PBS.

For a further data set, the system named is P. falciparum CAM3.1. The data set can be described thus: Multidrug-resistant parasite viability assay (SYBR green), CAM3.1. Format: cell-based. The conditions noted are these: Plasmodium falciparum, 72 h, read-out: multidrug resistant P. falciparum strains EC50 (SD) CAM3.1. The protocol:
as §1

As for `CN1C(=O)c2ccc(Cl)cc2NC1(C)C(=O)Nc1cncc(Cl)c1` (stereo not drawn) [Compound 14, 7‐Chloro‐N‐(5‐chloro‐3‐pyridyl)‐2,3‐dimethyl‐4‐oxo‐1H‐quinazoline‐2‐carboxamide], the EC50 in data set [1] worked out at 33 nM; in data set [2] it was 50 nM; in data set [3], 58 nM; in the data set with P. falciparum 7G8, 43 nM; in the data set with P. falciparum CAM3.1, 21 nM. In the data set “Rat hepatocyte stability”, the hepatocyte CLint is 25 µL/min/1e6 cells.
`CN1C(=O)c2ccc(-n3cccn3)cc2NC1(C)C(=O)Nc1cncc(Cl)c1` (stereo not drawn) [Compound 33, N‐(5‐Chloropyridin‐3‐yl)‐2,3‐dimethyl‐4‐oxo‐7‐(1H‐pyrazol‐1‐yl)‐1,2,3,4‐tetrahydroquinazoline‐2‐carboxamide]: the 50% effective concentration (EC50) amounted to 65 nM in data set [1]; 73 nM in data set [2]; 101 nM in data set [3]; 101 nM with P. falciparum 7G8; 60 nM in the data set on P. falciparum CAM3.1. The hepatocyte CLint in “Rat hepatocyte stability” was 14 µL/min/1e6 cells.
Consider `COc1cc(F)c2c(c1)NC(C)(C(=O)Nc1cncc(Cl)c1)N(C)C2=O` (stereo not drawn) [Compound 36, N‐(5‐Chloropyridin‐3‐yl)‐5‐fluoro‐7‐methoxy‐2,3‐dimethyl‐4‐oxo‐1,2,3,4‐tetrahydroquinazoline‐2‐carboxamide], for which the EC50 in data set [1] was 21 nM; in data set [2] it was 32 nM; in data set [3] it was 33 nM; in the data set with P. falciparum 7G8, 31 nM; with P. falciparum CAM3.1 it was 14 nM. Moreover, in the data set “Rat hepatocyte stability”, the hepatocyte CLint came to 8 µL/min/1e6 cells.
